Data: PubChem BioAssay AID1963431 (Molecular Pharmacology Branch, DTP, NCI, 2024)
Values joined by “and” are separate entries in the source; they are usually repeats but may differ in a detail not shown here. Equal values may be shown once. Blank lines part the entries; values can stand above or below the compound they belong to.

System: Rh18 complex spheroid viability, percent test/control
Assay: Anticancer human tumor Rh18 cell line growth inhibition [Asc];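 also: spheroids exposed to compound for 7 days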;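 as to viability, T/C: 100% = DMSO vehicle control wells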
Conditions: for viability, T/C: stronger effect = lower value
How it was run: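 Tumor cells were grown as complex spheroids with human endothelial cells (HUVEC) and human mesenchymal stem cells as stroma. Agents were tested alone and in combination, in half-log steps down from the clinical Cmax, or from 10 microM where Cmax was unknown.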

[1] = curve of first compound, second compound 0.00316 µM
[2] = curve of first compound, second compound 0.01 µM
[3] = curve of first compound, second compound 0.0316 µM
[4] = curve of first compound, second compound 0.1 µM
[5] = curve of first compound, second compound 0.316 µM
[6] = curve of first compound, second compound 1 µM
[7] = second compound 0.1 µM, first compound 0.00949 µM
[8] = second compound 0.1 µM, first compound 0.03 µM
[9] = second compound 0.1 µM, first compound 0.0949 µM
[10] = second compound 0.1 µM, first compound 0.3 µM
[11] = second compound 0.316 µM, first compound 0.00949 µM
[12] = second compound 0.316 µM, first compound 0.03 µM
[13] = second compound 0.316 µM, first compound 0.0949 µM
[14] = second compound 0.316 µM, first compound 0.3 µM
[15] = second compound 1 µM, first compound 0.00949 µM
[16] = second compound 1 µM, first compound 0.03 µM
[17] = second compound 1 µM, first compound 0.0949 µM
[18] = second compound 1 µM, first compound 0.3 µM

SMILES: Cc1c(S(C)(=O)=O)c(-c2cc(F)cc(N3CCN(c4ccc(NS(=O)(=O)c5ccc(NC(CCN6CCC(C(=O)OCCCP(=O)(O)O)CC6)CSc6ccccc6)c(S(=O)(=O)C(F)(F)F)c5)cc4)CC3)c2)c(-c2ccc(Cl)cc2)n1C(C)C (configuration not stated)
viability, T/C (compound 0.1 µM): 14.1% [middle of 14 runs] | viability, T/C (compound 0.316 µM): 10% [middle of 14 runs] | viability, T/C (compound 1 µM): 9.12% [middle of 13 runs] | viability, T/C (compound 3.16 µM): 6.19% [middle of 14 runs] | viability, T/C (compound 10 µM): 5.39% [middle of 14 runs] | IC50 (compound alone, run of 10/11/2022): < 100 nM

SMILES: C=CC(=O)N1CCN(c2nc(=O)n(-c3c(C)ccnc3C(C)C)c3nc(-c4c(O)cccc4F)c(F)cc23)C(C)C1 (configuration not stated)
viability, T/C (compound 0.0316 µM): 117% and 122% and 92.1% | viability, T/C (compound 0.1 µM): 95.2% and 169% and 115% | viability, T/C (compound 0.316 µM): 106% and 125% and 109% | viability, T/C (compound 1 µM): 118% (2×) and 104% | viability, T/C (compound 3.16 µM): 133% and 137% and 106% | viability, T/C (compound 10 µM): 115% and 89.8% and 92% | IC50 (curve of compound): > 10000 nM

SMILES: NC(=O)C(=Cn1cnc(-c2cc(C(F)(F)F)cc(C(F)(F)F)c2)n1)c1cncnc1 + Cc1c(S(C)(=O)=O)c(-c2cc(F)cc(N3CCN(c4ccc(NS(=O)(=O)c5ccc(NC(CCN6CCC(C(=O)OCCCP(=O)(O)O)CC6)CSc6ccccc6)c(S(=O)(=O)C(F)(F)F)c5)cc4)CC3)c2)c(-c2ccc(Cl)cc2)n1C(C)C
IC50 [4]: < 0.949 nM | IC50 [5]: < 0.949 nM | IC50 [6]: < 0.949 nM | IC50 (curve of first compound, second compound 3.16 µM): < 0.949 nM | IC50 (curve of first compound, second compound 10 µM): < 0.949 nM | viability, T/C (second compound 0.1 µM, first compound 0.000949 µM): 13.5% | viability, T/C (second compound 0.1 µM, first compound 0.003 µM): 16.7% | viability, T/C [7]: 18.6% | viability, T/C [8]: 13.7% | viability, T/C [9]: 9.41% | viability, T/C [10]: 5.69% | viability, T/C (second compound 0.316 µM, first compound 0.000949 µM): 15.2% | viability, T/C (second compound 0.316 µM, first compound 0.003 µM): 13.6% | viability, T/C [11]: 10.8% | viability, T/C [12]: 9.84% | viability, T/C [13]: 9.11% | viability, T/C [14]: 3.67% | viability, T/C (second compound 1 µM, first compound 0.000949 µM): 10.2% | viability, T/C (second compound 1 µM, first compound 0.003 µM): 9.49% | viability, T/C [15]: 8.9% | viability, T/C [16]: 7.48% | viability, T/C [17]: 7.03% | viability, T/C [18]: 2.37% | viability, T/C (second compound 3.16 µM, first compound 0.000949 µM): 7.63% | viability, T/C (second compound 3.16 µM, first compound 0.003 µM): 8.78% | viability, T/C (second compound 3.16 µM, first compound 0.00949 µM): 7.9% | viability, T/C (second compound 3.16 µM, first compound 0.03 µM): 5.11% | viability, T/C (second compound 3.16 µM, first compound 0.0949 µM): 4.79% | viability, T/C (second compound 3.16 µM, first compound 0.3 µM): 2.11% | viability, T/C (second compound 10 µM, first compound 0.000949 µM): 4.44% | viability, T/C (second compound 10 µM, first compound 0.003 µM): 6.25% | viability, T/C (second compound 10 µM, first compound 0.00949 µM): 6.34% | viability, T/C (second compound 10 µM, first compound 0.03 µM): 5.72% | viability, T/C (second compound 10 µM, first compound 0.0949 µM): 3.51% | viability, T/C (second compound 10 µM, first compound 0.3 µM): 1.84%

Further lines, with some results ahead:

IC50 [1]: 5080 nM | IC50 [2]: 4310 nM | IC50 [3]: 3640 nM | IC50 [4]: < 31.6 nM | IC50 [5]: 1790 nM | IC50 [6]: 3380 nM
SMILES: C#Cc1c(F)ccc2cc(O)cc(-c3ncc4c(N5CC6CCC(C5)N6)nc(OCC56CCCN5CC(F)C6)nc4c3F)c12 (configuration not stated) + CNC(C)C(=O)NC1CN(S(=O)(=O)c2cccc(S(=O)(=O)N3CCC4CCC(C(=O)NC(c5ccccc5)c5ccccc5)N4C(=O)C(NC(=O)C(C)NC)C3)c2)CCC2CCC(C(=O)NC(c3ccccc3)c3ccccc3)N2C1=O
viability, T/C (second compound 0.00316 µM, first compound 0.0316 µM): 67.1% | viability, T/C (second compound 0.00316 µM, first compound 0.1 µM): 60.7% | viability, T/C (second compound 0.00316 µM, first compound 0.316 µM): 64.5% | viability, T/C (second compound 0.00316 µM, first compound 1 µM): 65% | viability, T/C (second compound 0.00316 µM, first compound 3.16 µM): 70.7% | viability, T/C (second compound 0.00316 µM, first compound 10 µM): 27.7% | viability, T/C (second compound 0.01 µM, first compound 0.0316 µM): 57.4% | viability, T/C (second compound 0.01 µM, first compound 0.1 µM): 60.7% | viability, T/C (second compound 0.01 µM, first compound 0.316 µM): 50.2% | viability, T/C (second compound 0.01 µM, first compound 1 µM): 74.8% | viability, T/C (second compound 0.01 µM, first compound 3.16 µM): 63.9% | viability, T/C (second compound 0.01 µM, first compound 10 µM): 18.9% | viability, T/C (second compound 0.0316 µM, first compound 0.0316 µM): 63.2% | viability, T/C (second compound 0.0316 µM, first compound 0.1 µM): 40.7% | viability, T/C (second compound 0.0316 µM, first compound 0.316 µM): 52.2% | viability, T/C (second compound 0.0316 µM, first compound 1 µM): 55.3% | viability, T/C (second compound 0.0316 µM, first compound 3.16 µM): 61.5% | viability, T/C (second compound 0.0316 µM, first compound 10 µM): 17.6% | viability, T/C (second compound 0.1 µM, first compound 0.0316 µM): 40.1% | viability, T/C (second compound 0.1 µM, first compound 0.1 µM): 52.3% | viability, T/C (second compound 0.1 µM, first compound 0.316 µM): 40.3% | viability, T/C (second compound 0.1 µM, first compound 1 µM): 61.9% | viability, T/C (second compound 0.1 µM, first compound 3.16 µM): 50.9% | viability, T/C (second compound 0.1 µM, first compound 10 µM): 14.1% | viability, T/C (second compound 0.316 µM, first compound 0.0316 µM): 74.4% | viability, T/C (second compound 0.316 µM, first compound 0.1 µM): 69% | viability, T/C (second compound 0.316 µM, first compound 0.316 µM): 58.9% | viability, T/C (second compound 0.316 µM, first compound 1 µM): 47.2% | viability, T/C (second compound 0.316 µM, first compound 3.16 µM): 54.4% | viability, T/C (second compound 0.316 µM, first compound 10 µM): 11.8% | viability, T/C (second compound 1 µM, first compound 0.0316 µM): 78.2% | viability, T/C (second compound 1 µM, first compound 0.1 µM): 50.2% | viability, T/C (second compound 1 µM, first compound 0.316 µM): 45% | viability, T/C (second compound 1 µM, first compound 1 µM): 51.6% | viability, T/C (second compound 1 µM, first compound 3.16 µM): 53.3% | viability, T/C (second compound 1 µM, first compound 10 µM): 10.5%

IC50 [1]: 12.3 nM | IC50 [2]: 18.8 nM | IC50 [3]: 12.4 nM | IC50 [4]: 15.6 nM | IC50 [5]: < 9.49 nM | IC50 [6]: 11.5 nM
SMILES: Cc1nc(N2CCC3(CC2)COC(C)C3N)c(CO)nc1Sc1ccnc(N)c1Cl (configuration not stated) + CNC(C)C(=O)NC1CN(S(=O)(=O)c2cccc(S(=O)(=O)N3CCC4CCC(C(=O)NC(c5ccccc5)c5ccccc5)N4C(=O)C(NC(=O)C(C)NC)C3)c2)CCC2CCC(C(=O)NC(c3ccccc3)c3ccccc3)N2C1=O
viability, T/C (second compound 0.00316 µM, first compound 0.00949 µM): 44.4% | viability, T/C (second compound 0.00316 µM, first compound 0.03 µM): 60% | viability, T/C (second compound 0.00316 µM, first compound 0.0949 µM): 34.7% | viability, T/C (second compound 0.00316 µM, first compound 0.3 µM): 33.7% | viability, T/C (second compound 0.00316 µM, first compound 0.949 µM): 23.2% | viability, T/C (second compound 0.00316 µM, first compound 3 µM): 12.9% | viability, T/C (second compound 0.01 µM, first compound 0.00949 µM): 56% | viability, T/C (second compound 0.01 µM, first compound 0.03 µM): 48.8% | viability, T/C (second compound 0.01 µM, first compound 0.0949 µM): 30.7% | viability, T/C (second compound 0.01 µM, first compound 0.3 µM): 25.8% | viability, T/C (second compound 0.01 µM, first compound 0.949 µM): 23.2% | viability, T/C (second compound 0.01 µM, first compound 3 µM): 14.9% | viability, T/C (second compound 0.0316 µM, first compound 0.00949 µM): 51.2% | viability, T/C (second compound 0.0316 µM, first compound 0.03 µM): 45.7% | viability, T/C (second compound 0.0316 µM, first compound 0.0949 µM): 31.2% | viability, T/C (second compound 0.0316 µM, first compound 0.3 µM): 23.3% | viability, T/C (second compound 0.0316 µM, first compound 0.949 µM): 23.4% | viability, T/C (second compound 0.0316 µM, first compound 3 µM): 16.1% | viability, T/C [7]: 63% | viability, T/C [8]: 32.3% | viability, T/C [9]: 22.9% | viability, T/C [10]: 28.2% | viability, T/C (second compound 0.1 µM, first compound 0.949 µM): 21.9% | viability, T/C (second compound 0.1 µM, first compound 3 µM): 13.2% | viability, T/C [11]: 45.9% | viability, T/C [12]: 24.1% | viability, T/C [13]: 31.3% | viability, T/C [14]: 25.5% | viability, T/C (second compound 0.316 µM, first compound 0.949 µM): 18.9% | viability, T/C (second compound 0.316 µM, first compound 3 µM): 13.9% | viability, T/C [15]: 54% | viability, T/C [16]: 30% | viability, T/C [17]: 22% | viability, T/C [18]: 22.8% | viability, T/C (second compound 1 µM, first compound 0.949 µM): 37.9% | viability, T/C (second compound 1 µM, first compound 3 µM): 16.7%
